Data reported in ChEMBL document CHEMBL5725928, “Substituted 4,5,6,7-tetrahydropyrazolo[1,5-A]pyrazine derivatives as casein kinase 1 D/E inhibitors” (2017).

Biological target: Casein kinase I isoform epsilon (Homo sapiens, UniProt P49674)
Test: Kinase Assay: The kinase assay was performed in V-bottom 384-well plates. The final assay volume was 30 μl prepared from 15 μl additions of enzyme, substrates (fluoresceinated peptide FL-AHA-KRRRAL-PSER-VASLPGL-OH and ATP) and test compounds in assay buffer (20 mM HEPES pH 7.4, 30 mM MgCl2, 0.015% Brij35 and 4 mM DTT). The reaction was incubated at room temperature for 22 hours and terminated by adding 45 μl of 35 mM EDTA to each sample. The reaction mixture was analyzed on the Caliper LABCHIP®3000 (Caliper, Hopkinton, Mass.) by electrophoretic separation of the unphosphorylated substrate and phosphorylated product. […] The final concentration of reagents in the assay were 200 pM CK1ε or CK1δ, 50 μM ATP, 1.5 μM FL-AHA-KRRRAL-PSER-VASLPGL-OH, and 1.6% DMSO. Dose response curves were generated to determine the concentration required to inhibit 50% of the kinase activity (IC50). Compounds were dissolved at 10 mM in dimethylsulfoxide (DMSO) and evaluated at eleven concentrations. IC50 values were derived by non-linear regression analysis.

Chain of Casein kinase I isoform epsilon (P49674 whole entry, canonical isoform): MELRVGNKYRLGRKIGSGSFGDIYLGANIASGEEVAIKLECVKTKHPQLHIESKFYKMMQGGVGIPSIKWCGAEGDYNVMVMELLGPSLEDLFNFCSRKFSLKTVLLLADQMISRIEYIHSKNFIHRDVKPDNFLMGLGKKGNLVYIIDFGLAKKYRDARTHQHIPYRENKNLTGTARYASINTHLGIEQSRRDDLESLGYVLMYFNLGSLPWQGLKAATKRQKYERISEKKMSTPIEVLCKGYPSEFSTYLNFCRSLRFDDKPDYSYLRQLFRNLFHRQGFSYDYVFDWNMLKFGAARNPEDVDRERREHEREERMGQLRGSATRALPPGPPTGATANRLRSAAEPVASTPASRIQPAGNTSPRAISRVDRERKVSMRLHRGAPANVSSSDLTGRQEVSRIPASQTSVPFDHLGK

Row | IC50 | Structure (SMILES)
1 | < 10 nM | NC(=O)c1c(-c2ccc(F)c(Cl)c2)nn2c1CN(C(=O)Nc1ccc3c(c1)S(=O)(=O)C=C3)CC2
2 | < 10 nM | Cc1ncc(-c2ccc(NC(=O)N3CCn4nc(-c5cccc(F)c5)c(C(N)=O)c4C3)cc2)o1
3 | < 10 nM | NC(=O)c1c(-c2ccc(Cl)c(F)c2)nn2c1CN(C(=O)Nc1ccc(Cl)c(Cl)c1)CC2
4 | < 10 nM | NC(=O)c1c(-c2cccc(F)c2)nn2c1CN(C(=O)NC1C3CC4CC(C3)CC1C4)CC2 (stereo not drawn)
5 | < 10 nM | Cc1nc(-c2ccc(NC(=O)N3CCn4nc(-c5cccc(F)c5)c(C(N)=O)c4C3)cc2)cs1
6 | < 10 nM | N#Cc1ccc(NC(=O)N2CCn3nc(-c4cccc(Cl)c4)c(C(N)=O)c3C2)cc1N1CCOCC1
7 | < 10 nM | NC(=O)c1c(-c2ccc(F)c(Cl)c2)nn2c1CN(C(=O)Nc1cc(F)cc(C(F)(F)F)c1)CC2

The remaining lines, values behind:

Row | Structure (SMILES) | IC50
8 | N#Cc1ccc(NC(=O)N2CCn3nc(-c4cnc(F)c(Cl)c4)c(C(N)=O)c3C2)cc1C(F)(F)F | < 10 nM
9 | NC(=O)c1c(-c2ccc(F)c(Cl)c2)nn2c1CN(C(=O)Nc1ccc(F)cc1)CC2 | < 10 nM
10 | NC(=O)c1c(-c2cc(F)cc(Cl)c2)nn2c1CN(C(=O)Nc1cc(F)cc(C(F)(F)F)c1)CC2 | < 10 nM
11 | NC(=O)c1c(-c2cccc(F)c2)nn2c1CN(C(=O)Nc1cc(Cl)cc(Cl)c1)CC2 | < 10 nM
12 | COc1cccc(-c2nn3c(c2C(N)=O)CN(C(=O)Nc2ccc(C#N)cc2)CC3)c1 | < 10 nM
13 | Cc1nc(-c2ccc(NC(=O)N3CCn4nc(-c5ccc(F)c(Cl)c5)c(C(N)=O)c4C3)cc2)cs1 | < 10 nM
